The source made the active and inactive calls. The calls are words filed in the database; no cut-off is given here. Positions of bridges follow the written chain, without caps; N, C: chain ends. Non-standard residues stand in square brackets, D forms with d. Residues, ends and D or L forms follow the SMILES beside them. d2Nal = N[C@H](Cc1ccc2ccccc2c1)C(=O)O; Nle = CCCC[C@H](N)C(=O)O
Key:
Melanocortin receptor 3 [1] = molecular target: T1, Melanocortin receptor 3 (Homo sapiens, UniProt P41968); assay: Agonist activity at human MC3R transfected in HEK293 cells assessed as cAMP accumulation by split-luciferase assay
[2] = molecular target: Melanocortin receptor 4 (Homo sapiens) (UniProt P32245); assay: Agonist activity at human MC4R transfected in HEK293T cells co-transfected with GScAMP22F assessed as increase in cAMP level; assay type: functional, cell-based; details: HEK293, filed as agonist
Melanocortin receptor 3 [3] = molecular target: T1, Melanocortin receptor 3; assay: Agonist activity at human MC3R transfected in HEK293T cells co-transfected with GScAMP22F assessed as increase in cAMP level; assay type: functional, cell-based; details: HEK293, filed as agonist
[4] = molecular target: Melanocyte-stimulating hormone receptor (Homo sapiens) (UniProt Q01726); assay: Agonist activity at human MC1R transfected in HEK293 cells co-transfected with GScAMP22F assessed as increase in cAMP level by split luciferase cAMP sensor dynamic assay relative to control; assay type: functional, cell-based
[5] = molecular target: Melanocortin receptor 5 (Homo sapiens) (UniProt P33032); assay: Agonist activity at human MC5R transfected in HEK293 cells co-transfected with GScAMP22F assessed as increase in cAMP level by split luciferase cAMP sensor dynamic assay relative to control; assay type: functional, cell-based
Melanocortin receptor 3 [6] = molecular target: T1, Melanocortin receptor 3; assay: Antagonist activity at human MC3R transfected in HEK293T cells co-transfected with GScAMP22F assessed as inhibition of alpha-MSH-indued cAMP production; assay type: functional, cell-based; details: HEK293, filed as antagonist
[7] = molecular target: Melanocortin receptor 4 (Homo sapiens) (UniProt P32245); assay: Antagonist activity at human MC4R transfected in HEK293T cells co-transfected with GScAMP22F assessed as inhibition of alpha-MSH-indued cAMP production; assay type: functional, cell-based; details: HEK293, filed as antagonist

Sequence of Melanocortin receptor 4 (Homo sapiens) (P32245 whole entry): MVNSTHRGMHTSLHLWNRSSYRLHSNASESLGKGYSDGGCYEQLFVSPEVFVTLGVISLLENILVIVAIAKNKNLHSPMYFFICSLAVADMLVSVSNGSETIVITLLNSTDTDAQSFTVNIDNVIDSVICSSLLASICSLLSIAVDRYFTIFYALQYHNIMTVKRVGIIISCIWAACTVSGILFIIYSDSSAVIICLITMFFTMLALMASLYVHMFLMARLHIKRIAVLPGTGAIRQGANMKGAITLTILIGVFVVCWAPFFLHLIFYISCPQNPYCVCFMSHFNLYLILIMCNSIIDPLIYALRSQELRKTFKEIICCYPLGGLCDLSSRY
T1 sequence (P41968 whole entry): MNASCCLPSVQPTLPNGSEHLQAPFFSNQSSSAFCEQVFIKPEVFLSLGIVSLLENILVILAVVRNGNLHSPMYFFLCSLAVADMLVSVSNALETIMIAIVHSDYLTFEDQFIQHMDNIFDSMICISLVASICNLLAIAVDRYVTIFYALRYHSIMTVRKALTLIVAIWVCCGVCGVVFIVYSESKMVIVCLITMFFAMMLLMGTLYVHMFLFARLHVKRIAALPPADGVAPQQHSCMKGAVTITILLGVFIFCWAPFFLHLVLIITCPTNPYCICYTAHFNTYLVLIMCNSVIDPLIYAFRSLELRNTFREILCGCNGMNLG
Sequence of Melanocortin receptor 5 (Homo sapiens) (P33032 whole entry): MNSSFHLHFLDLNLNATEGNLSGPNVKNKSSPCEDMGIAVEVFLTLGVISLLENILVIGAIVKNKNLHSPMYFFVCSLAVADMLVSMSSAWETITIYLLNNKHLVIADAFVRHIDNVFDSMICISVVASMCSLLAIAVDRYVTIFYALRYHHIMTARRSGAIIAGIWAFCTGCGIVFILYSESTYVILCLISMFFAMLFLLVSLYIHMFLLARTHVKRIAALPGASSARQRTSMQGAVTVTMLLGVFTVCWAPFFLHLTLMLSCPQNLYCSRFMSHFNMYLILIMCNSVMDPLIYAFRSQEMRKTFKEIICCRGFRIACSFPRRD
Sequence of Melanocyte-stimulating hormone receptor (Homo sapiens) (Q01726 whole entry, looked up): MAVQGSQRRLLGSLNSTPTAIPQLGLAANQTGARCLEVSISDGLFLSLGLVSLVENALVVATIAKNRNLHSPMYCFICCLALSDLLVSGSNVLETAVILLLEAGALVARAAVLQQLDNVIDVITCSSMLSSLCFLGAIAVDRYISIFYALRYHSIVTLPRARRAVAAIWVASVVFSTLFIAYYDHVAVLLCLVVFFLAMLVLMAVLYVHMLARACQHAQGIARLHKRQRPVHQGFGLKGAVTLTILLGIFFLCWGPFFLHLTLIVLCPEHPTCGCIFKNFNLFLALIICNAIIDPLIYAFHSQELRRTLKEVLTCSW

## CCCC[C@H](NC(=O)[C@@H](NC(=O)[C@@H](N)Cc1ccc(O)cc1)C(C)C)C(=O)NCC(=O)N[C@@H](Cc1c[nH]cn1)C(=O)N[C@H](Cc1ccc2ccccc2c1)C(=O)N[C@@H](CCCN=C(N)N)C(=O)N[C@@H](Cc1c[nH]c2ccccc12)C(=O)N[C@@H](CC(=O)O)C(=O)N[C@@H](CCCN=C(N)N)C(=O)N[C@@H](Cc1ccccc1)C(=O)NCC(N)=O
Melanocortin receptor 3 [1]
  EC50: > 10 µM

## CCCC[C@H](N)C(=O)N[C@H]1CC(=O)NCCCC[C@@H](C(N)=O)NC(=O)[C@H](Cc2c[nH]c3ccccc23)N(C)C(=O)[C@H](CCCNC(=N)N)NC(=O)[C@@H](Cc2ccccc2)NC(=O)[C@@H]2CCCN2C1=O
[2]
  Activity: Active
Melanocortin receptor 3 [3]
  Activity: Active

## CCCC[C@H](NC(C)=O)C(=O)N[C@H]1CC(=O)NCCCC[C@@H](C(N)=O)NC(=O)[C@H](Cc2c[nH]c3ccccc23)NC(=O)[C@H](CCCNC(=N)N)NC(=O)[C@@H](Cc2ccc3ccccc3c2)NC(=O)[C@@H]2CCCN2C(=O)[C@@H]2CCCN2C1=O (Ac-[Nle]DPP[d2Nal]RWK-NH2; lactam 2-8)
[4]
  Emax: < 10%

## CC(=O)N[C@@H](CCCNC(=N)N)C(=O)N[C@H]1CSSC[C@@H](C(N)=O)NC(=O)[C@H](Cc2c[nH]c3ccccc23)NC(=O)[C@H](CCCNC(=N)N)NC(=O)[C@@H](Cc2ccccc2)NC(=O)[C@H](Cc2c[nH]cn2)NC(=O)[C@@H](C)NC1=O
[2]
  Activity: Active
Melanocortin receptor 3 [3]
  Activity: Active

## CCCC[C@H](NC(=O)[C@@H](NC(=O)[C@@H](N)Cc1ccc(O)cc1)C(C)C)C(=O)NCC(=O)N1CCC[C@H]1C(=O)N[C@H](Cc1ccc2ccccc2c1)C(=O)N[C@@H](CCCN=C(N)N)C(=O)N[C@@H](Cc1c[nH]c2ccccc12)C(=O)N[C@@H](CC(=O)O)C(=O)N[C@@H](CCCN=C(N)N)C(=O)N[C@@H](Cc1ccccc1)C(=O)NCC(N)=O (H-YV[Nle]GP[d2Nal]RWDRFG-NH2)
[5]
  Emax: < 10%

## CCCC[C@H](NC(=O)[C@@H](NC(=O)[C@@H](N)Cc1ccc(O)cc1)C(C)C)C(=O)NCC(=O)N[C@@H](Cc1cnc[nH]1)C(=O)N[C@H](Cc1ccc2ccccc2c1)C(=O)N[C@@H](CCCNC(=N)N)C(=O)N[C@H](Cc1c[nH]c2ccccc12)C(=O)N[C@@H](CC(=O)O)C(=O)N[C@@H](CCCNC(=N)N)C(=O)N[C@@H](Cc1ccccc1)C(=O)NCC(=O)O
Melanocortin receptor 3 [6]
  Activity: Active
[7]
  Activity: Active

## CC(=O)N[C@@H](CCCNC(=N)N)C(=O)N[C@@H]1CSSC[C@H](C(N)=O)NC(=O)[C@H](Cc2c[nH]c3ccccc23)NC(=O)[C@H](CCCNC(=N)N)NC(=O)[C@@H](Cc2ccc3ccccc3c2)NC(=O)[C@H](Cc2c[nH]cn2)NC(=O)[C@@H](C)NC1=O
Melanocortin receptor 3 [6]
  Activity: Active
[7]
  Activity: Active

## CCCC[C@H](NC(=O)[C@@H](NC(=O)[C@@H](N)Cc1ccc(O)cc1)C(C)C)C(=O)NCC(=O)N[C@@H](Cc1cnc[nH]1)C(=O)N[C@@H](Cc1ccccc1)C(=O)N[C@@H](CCCNC(=N)N)C(=O)N[C@H](Cc1c[nH]c2ccccc12)C(=O)N[C@@H](CC(=O)O)C(=O)N[C@@H](CCCNC(=N)N)C(=O)N[C@@H](Cc1ccccc1)C(=O)NCC(=O)O
[2]
  Activity: Active
